# Bridge positions count the residues as written; N and C are the ends. Square brackets hold non-standard residues; d marks the D form. Ends that are not written are not given here. Peptide text beside a SMILES is read from it. S5 = C=CCCC[C@](C)(N)C(=O)O; Nle = CCCC[C@H](N)C(=O)O
# Legend:
# red blood cells (RBCs) = format: cell-based, human
# Description: RBC hemolysis assay: To assess the hemolytic activity of a structurally-stabilized peptide described herein, a red blood cell (RBV) hemolysis assay can be used. Human blood samples are centrifuged to isolate RBCs, which are then washed and suspended in phosphate-buffered saline to yield a 1% (v/v) suspension. The suspension is added to serial dilutions of peptide stocks in water in clear round-bottom polypropylene 96-well plates and the plates incubated for 1 hour at 37° C. The plates are then centrifuged and the supernatant isolated to determine the amount of hemoglobin released using a spectrophotometer (570 nm). Percent hemolysis is calculated as: ([Treated Absorbance−Untreated Control Absorbance]×100)/(1% Triton X-100 Treated Absorbance−Untreated Control Absorbance).
# Stapled oncolytic peptide synthesis: Fmoc-based solid-phase peptide synthesis was used to synthesize stapled antimicrobial peptides in accordance with previously reported methods for generating all-hydrocarbon stapled peptides. To achieve the various staple lengths, α-methyl, α-alkenyl amino acids were installed at i, i+4 positions using two S-pentenyl alanine residues (S5). For the stapling reaction, Grubbs 1st generation ruthenium catalyst dissolved in dichloroethane was added to the resin-bound peptides. To ensure maximal conversion, three to five rounds of stapling were performed. The peptides were then cleaved off of the resin using trifluoroacetic acid, precipitated using a hexane:ether (1:1) mixture, air dried, and purified by LC-MS. All peptides were quantified by amino acid analysis. RBC hemolysis assay: Human blood samples were centrifuged to isolate red blood cells (RBCs), which were then washed and suspended in phosphate-buffered saline to yield a 1% (v/v) suspension. The suspension was added to serial dilutions of peptide stocks in water in clear round-bottom polypropylene 96-well plates and the plates incubated for 1 hour at 37° C. The plates were then centrifuged and the supernatant isolated to determine the amount of hemoglobin released using a spectrophotometer (570 nm). Percent hemolysis was calculated as: ([Treated Absorbance−Untreated Control Absorbance]×100)/(1% Triton X-100 Treated Absorbance−Untreated Control Absorbance).
# U937 cells = assay: LDH release assay of U937 cells; format: cell-based; details: 10 and 25 μg/mL, 90 minutes, FIG. 6, FIG. 7
# Description: (§1) LDH release assay: To assess the release of lactate dehydrogenase (LDH) upon treatment with a structurally-stabilized peptide described herein, an LDH release assay can be used. Cultured cells, including, e.g., cancer cells and HUVEC cells, are plated in 96-well format (2×10^4 cells per well; including overnight incubation for adherent cells) and then treated with serial dilutions of structurally-stabilized peptides in a final volume in a final volume of 100 μL and incubated at 37° C. for the indicated time period (e.g., 90 minutes). The plates are spun down at 1500 rpm for 5 minutes at 4° C., and 80 μL of cell culture media is transferred to a clear plate (Corning), incubated with 80 μL of LDH reagent (Roche) for 15 minutes while shaking, and absorbance is measured at 490 nm on a microplate reader (SpectraMax M5 Microplate Reader, Molecular Devices). LDH release assays, as tailored to specific cancer cell types (OCI-AML3 cells and primary human pediatric B-ALL cells), are exemplified below.
# (§2) LDH release assay: Cultured cells, including cancer cells and HUVEC cells, were plated in 96-well format (2×10^4 cells per well; including overnight incubation for adherent cells) and then treated with serial dilutions of Mag(i+4) peptides in a final volume in a final volume of […] and incubated at 37° C. for the indicated time period. The plates were spun down at 1500 rpm for 5 min at 4° C., and 80 μL of cell culture media was transferred to a clear plate (Corning), incubated with 80 μL of LDH reagent (Roche) for 15 min while shaking, and absorbance measured at 490 nm on a microplate reader (SpectraMax M5 Microplate Reader, Molecular Devices). LDH release assays, as tailored to specific cancer cell types, are exemplified below.
# OCI-AML3 cells = assay: LDH release assay of OCI-AML3 cells; format: cell-based, human; details: 90 minutes; for cancer cell lysis by LDH release, compared with parent Mag(i+4)15: 10 and 25 μg/mL, FIG. 6, FIG. 7; for susceptibility of OCI-AML3 cells to iStOPs (LDH release): FIG. 19
# Description: as §1
# (§3) LDH release assay of OCI-AML3 cells: OCI-AML3 cells are seeded in 96-well plates (2×10^4 cells per well) in RPMI medium containing 5% FBS and treated with structurally-stabilized peptides for 90 minutes. LDH release is quantified by incubating centrifuged (e.g., at 1500 rpm) cell culture medium 1:1 with LDH reagent (Roche), followed by absorbance measurement 490 nm on a microplate reader (Spectramax M5). Percent LDH release was normalized to 1% Triton.
# as §2
# as §3, with “were” for “are”, “with” for “with structurally-stabilized”, “peptides having the indicated amino acid sequences” for “peptides”, “was” for “is”, “centrifuged” for “centrifuged (e.g., at 1500 rpm)”, “Triton. Data was pooled from 2 technical replicates.” for “Triton.”
Molecule,RBC lysis (red blood cells (RBCs)),"cancer cell lysis by LDH release, compared with parent Mag(i+4)15 (U937 cells)","cancer cell lysis by LDH release, compared with parent Mag(i+4)15 (OCI-AML3 cells)",susceptibility of OCI-AML3 cells to iStOPs (LDH release) (OCI-AML3 cells)
"CCCC[C@H](NC(=O)[C@@H](NC(=O)[C@H](CCC(=O)O)NC(=O)CNC(=O)[C@@H](NC(=O)[C@H](Cc1ccccc1)NC(=O)[C@H](C)NC(=O)[C@H](CCCCN)NC(=O)CNC(=O)[C@H](Cc1ccccc1)NC(=O)[C@H](CCCCN)NC(=O)[C@H](CCCCN)NC(=O)[C@H](C)NC(=O)[C@H](CO)NC(=O)[C@H](Cc1c[nH]cn1)NC(=O)[C@H](CC(C)C)NC(=O)[C@]1(C)CCCC=CCCC[C@](C)(N)C(=O)N[C@@H]([C@@H](C)CC)C(=O)NCC(=O)N[C@@H](CCCCN)C(=O)N1)C(C)C)[C@@H](C)CC)C(=O)N[C@@H](CC(N)=O)C(=O)N[C@@H](CO)C(N)=O [Mag(i+4)0, X1IGKX2LHSAKKFGKAFVGEIBNS] (H-[S5]IGK[S5]LHSAKKFGKAFVGEI[Nle]NS-NH2; staple 1-5)",little to no effect on RBCs,–,–,–
"CCCC[C@H](NC(=O)[C@@H](NC(=O)[C@H](CCC(=O)O)NC(=O)CNC(=O)[C@@H](NC(=O)[C@H](Cc1ccccc1)NC(=O)[C@H](C)NC(=O)[C@H](CCCCN)NC(=O)CNC(=O)[C@H](Cc1ccccc1)NC(=O)[C@H](CCCCN)NC(=O)[C@H](CCCCN)NC(=O)[C@H](C)NC(=O)[C@H](CO)NC(=O)[C@]1(C)CCCC=CCCC[C@](C)(NC(=O)[C@@H](NC(=O)CN)[C@@H](C)CC)C(=O)N[C@@H](CCCCN)C(=O)N[C@@H](Cc2ccccc2)C(=O)N[C@@H](CC(C)C)C(=O)N1)C(C)C)[C@@H](C)CC)C(=O)N[C@@H](CC(N)=O)C(=O)N[C@@H](CO)C(N)=O [Mag(i+4)2, GIX1KFLX2SAKKFGKAFVGEIBNS] (H-GI[S5]KFL[S5]SAKKFGKAFVGEI[Nle]NS-NH2; staple 3-7)",little to no effect on RBCs,–,–,–
GIEKFLHSAKKFGKAX1VGEX2BNS (GIEKFLHSAKKFGKA[S5]VGE[S5][Nle]NS; staple 16-20) [Mag(i+4)15 (G3E)],–,retained potent membrane lysis,retained potent membrane lysis,–
GIGKFLESAKKFGKAX1VGEX2BNS (GIGKFLESAKKFGKA[S5]VGE[S5][Nle]NS; staple 16-20) [Mag(i+4)15 (H7E)],–,retained potent membrane lysis,retained potent membrane lysis,especially potent and selective activity
GIGKFLHEAKKFGKAX1VGEX2BNS (GIGKFLHEAKKFGKA[S5]VGE[S5][Nle]NS; staple 16-20) [Mag(i+4)15 (S8E)],–,retained potent membrane lysis,retained potent membrane lysis,–
GIGKFLHKAKKFGKAX1VGEX2BNS (GIGKFLHKAKKFGKA[S5]VGE[S5][Nle]NS; staple 16-20) [Mag(i+4)15 (S8K)],–,"retain substantial, if not all, oncolytic activity","retain substantial, if not all, oncolytic activity",–
GIGKFLHSAKKFGKAX1VEEX2BNS (GIGKFLHSAKKFGKA[S5]VEE[S5][Nle]NS; staple 16-20) [Mag(i+4)15 (G18E)],–,retained potent membrane lysis,retained potent membrane lysis,especially potent and selective activity
GIGKFLHSAKKFGKAX1VGEX2BES (GIGKFLHSAKKFGKA[S5]VGE[S5][Nle]ES; staple 16-20) [Mag(i+4)15 (N22E)],–,retained potent membrane lysis,retained potent membrane lysis,especially potent and selective activity
GIGKFLHSAKKFGKAX1VGEX2BKS (GIGKFLHSAKKFGKA[S5]VGE[S5][Nle]KS; staple 16-20) [Mag(i+4)15 (N22K)],–,"retain substantial, if not all, oncolytic activity","retain substantial, if not all, oncolytic activity",–
GIGKFLHSAKKFGKAX1VGEX2BNE (GIGKFLHSAKKFGKA[S5]VGE[S5][Nle]NE; staple 16-20) [Mag(i+4)15 (S23E)],–,retained substantial or all cancer cell killing activity,retained substantial or all cancer cell killing activity,especially potent and selective activity
GIGKFLHSAKKFGKAX1VGEX2KNS (GIGKFLHSAKKFGKA[S5]VGE[S5]KNS; staple 16-20) [Mag(i+4)15 (M21K)],–,"retain substantial, if not all, oncolytic activity","retain substantial, if not all, oncolytic activity",–
GIGKFLHSAKKFGKAX1VGKX2BNS (GIGKFLHSAKKFGKA[S5]VGK[S5][Nle]NS; staple 16-20) [Mag(i+4)15 (E19K)],–,"retain substantial, if not all, oncolytic activity","retain substantial, if not all, oncolytic activity",–
GIGKFLHSAKKFGKAX1VKEX2BNS (GIGKFLHSAKKFGKA[S5]VKE[S5][Nle]NS; staple 16-20) [Mag(i+4)15 (G18K)],–,"retain substantial, if not all, oncolytic activity","retain substantial, if not all, oncolytic activity",–
GIGKFLHSAKKFGKEX1VGEX2BNS (GIGKFLHSAKKFGKE[S5]VGE[S5][Nle]NS; staple 16-20) [Mag(i+4)15 (A15E)],–,retained substantial or all cancer cell killing activity,retained substantial or all cancer cell killing activity,especially potent and selective activity
GIGKFLHSAKKFGKKX1VGEX2BNS (GIGKFLHSAKKFGKK[S5]VGE[S5][Nle]NS; staple 16-20) [Mag(i+4)15 (A15K)],–,"retain substantial, if not all, oncolytic activity","retain substantial, if not all, oncolytic activity",–
GIGKFLKSAKKFGKAX1VGEX2BNS (GIGKFLKSAKKFGKA[S5]VGE[S5][Nle]NS; staple 16-20) [Mag(i+4)15 (H7K)],–,"retain substantial, if not all, oncolytic activity","retain substantial, if not all, oncolytic activity",–
GIKKFLHSAKKFGKAX1VGEX2BNS (GIKKFLHSAKKFGKA[S5]VGE[S5][Nle]NS; staple 16-20) [Mag(i+4)15 (G3K)],–,"retain substantial, if not all, oncolytic activity","retain substantial, if not all, oncolytic activity",–
"iStOP 11: integrated StOP of Magainin II combining staples and point mutation(s); sequence only in FIG. 17B ([S5]IGK[S5]LHSKKKFGKA[S5]VGE[S5][Nle]NS; staple 1-5, 16-20)",–,–,–,especially potent and selective activity

# Reference: patent US20230116760A1, “STRUCTURALLY-STABILIZED ONCOLYTIC PEPTIDES AND USES THEREOF” (Dana-Farber Cancer Institute, Inc., priority 2019, published 2023)
